In brackets after ≈: the same amount, converted by molar mass. Activity calls are given as the source filed them. No cut-off for these calls is given here.
Experiments:
[1] = Cytotoxicity against human 293T cells assessed as reduction in cell viability incubated for 24 hrs by MTT assay; assay type: cell-based; conditions: HEK-293T cells
Pseudomonas aeruginosa = assay: Antibacterial activity against Pseudomonas aeruginosa ATCC 27853 assessed as inhibition of bacterial growth incubated for 24 hrs by TTC double broth dilution method; assay type: functional; conditions: ATCC 27853, 24 h
Staphylococcus aureus [2] = assay: Antibacterial activity against Staphylococcus aureus ATCC 25923 assessed as inhibition of bacterial growth incubated for 24 hrs by TTC double broth dilution method; assay type: functional; conditions: ATCC 25923, 24 h
[3] = test system: Xanthomonas oryzae pv. oryzae; assay: Antibacterial activity against wild type Xanthomonas oryzae pv. oryzae KACC10331 expressing FabH assessed as reduction in bacterial growth; assay type: functional
[4] = biological target: T1, 3-oxoacyl-[acyl-carrier-protein] synthase 3 (Escherichia coli, UniProt C3TDZ2); assay: Inhibition of Escherichia coli FabH in presence of radiolabelled substrates and acetyl-coA by enzyme coupled FabD/FabH assay system
T1 sequence (C3TDZ2 whole entry): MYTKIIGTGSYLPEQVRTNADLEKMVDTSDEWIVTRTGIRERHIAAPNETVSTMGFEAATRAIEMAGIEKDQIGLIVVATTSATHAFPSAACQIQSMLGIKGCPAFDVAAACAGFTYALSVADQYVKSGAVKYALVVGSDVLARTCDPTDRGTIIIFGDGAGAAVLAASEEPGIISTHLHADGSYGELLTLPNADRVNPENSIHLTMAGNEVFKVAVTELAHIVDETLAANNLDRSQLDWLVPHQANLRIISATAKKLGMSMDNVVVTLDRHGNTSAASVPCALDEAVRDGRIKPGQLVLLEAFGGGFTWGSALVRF

[5] = Induction of hemolysis in human erythrocytes assessed as hemoglobin release incubated for 3 hrs by spectrophotometric analysis; assay type: cell-based; conditions: erythrocyte
Escherichia coli = assay: Antibacterial activity against Escherichia coli ATCC 25922 assessed as inhibition of bacterial growth incubated for 24 hrs by TTC double broth dilution method; assay type: functional; conditions: ATCC 25922, 24 h
Bacillus subtilis = assay: Antibacterial activity against Bacillus subtilis ATCC 530 assessed as inhibition of bacterial growth incubated for 24 hrs by TTC double broth dilution method; assay type: functional; conditions: ATCC 530, 24 h
[6] = Inhibition of Enterococcus faecalis FabH
[7] = Inhibition of Streptococcus pyogenes FabH
[8] = test system: Xanthomonas oryzae pv. oryzae; assay: Antibacterial activity against wild type Xanthomonas oryzae pv. oryzae KACC10331 expressing FabH assessed as reduction in bacterial growth at 5 ug/ml; assay type: functional, organism-based
Streptococcus pneumoniae = assay: Antibacterial activity against Streptococcus pneumoniae; assay type: functional
Enterococcus faecium = assay: Antibacterial activity against Enterococcus faecium; assay type: functional
Staphylococcus aureus [9] = assay: Antibacterial activity against Staphylococcus aureus; assay type: functional

SMILES	CC50 at 24 h [1]	MIC (Pseudomonas aeruginosa)	MIC (Staphylococcus aureus [2])	MIC [3]	IC50 [4]	LC30 [5]	MIC (Escherichia coli)	MIC (Bacillus subtilis)	IC50 [6]	IC50 [7]	inhibition [8]	MIC (Streptococcus pneumoniae)	MIC (Enterococcus faecium)	MIC (Staphylococcus aureus [9])
Cc1ccc(-c2nn(-c3ccccc3)cc2-c2nc3ccccc3n2C(=O)c2ccc(C)nc2)cc1	145 µM	62.5 µg/mL (≈ 133 µM)	62.5 µg/mL (≈ 133 µM)	15.6 µg/mL (≈ 33.3 µM)	16.9 µM	> 10000 µg/mL	62.5 µg/mL (≈ 133 µM)	0.98 µg/mL (≈ 2.09 µM)						
O=C(c1cccnc1)n1c(-c2cn(-c3ccccc3)nc2-c2ccc(C(F)(F)F)cc2)nc2ccccc21	158 µM	62.5 µg/mL (≈ 123 µM)	62.5 µg/mL (≈ 123 µM)	15.6 µg/mL (≈ 30.7 µM)	15.2 µM	> 10000 µg/mL	62.5 µg/mL (≈ 123 µM)	1.95 µg/mL (≈ 3.83 µM)						
O=C(Nc1cccc(O)c1C(=O)O)c1ccc(-c2ccccc2)c(Oc2ccccc2)c1									0.004 µM	0.004 µM				
Cc1ccc(-c2nn(-c3ccccc3)cc2-c2nc3ccccc3n2C(=O)c2ccccc2)cc1	204 µM	62.5 µg/mL (≈ 138 µM)	> 62.5 µg/mL		28.2 µM	> 10000 µg/mL	> 62.5 µg/mL	31.2 µg/mL (≈ 68.8 µM)						
Cc1ccc(C(=O)n2c(-c3cn(-c4ccccc4)nc3-c3ccc(C(F)(F)F)cc3)nc3ccccc32)cc1	169 µM	> 62.5 µg/mL	> 62.5 µg/mL		31.8 µM	> 10000 µg/mL	62.5 µg/mL (≈ 120 µM)	3.9 µg/mL (≈ 7.46 µM)						
Cc1ccccc1C(=O)n1c(-c2cn(-c3ccccc3)nc2-c2ccc(F)cc2)nc2ccccc21	189 µM	> 62.5 µg/mL	> 62.5 µg/mL		37.2 µM	> 10000 µg/mL	> 62.5 µg/mL	62.5 µg/mL (≈ 132 µM)						
Cc1cncc(C(=O)n2c(-c3cn(-c4ccccc4)nc3-c3ccc(C(F)(F)F)cc3)nc3ccccc32)c1	123 µM	62.5 µg/mL (≈ 119 µM)	62.5 µg/mL (≈ 119 µM)	7.82 µg/mL (≈ 14.9 µM)	22.9 µM	> 10000 µg/mL	62.5 µg/mL (≈ 119 µM)	0.98 µg/mL (≈ 1.87 µM)			Active			
O=C(c1ccncc1)n1c(-c2cn(-c3ccccc3)nc2-c2ccc(F)cc2)nc2ccccc21	151 µM	62.5 µg/mL (≈ 136 µM)	62.5 µg/mL (≈ 136 µM)		33.9 µM	> 10000 µg/mL	> 62.5 µg/mL	31.2 µg/mL (≈ 68 µM)						
O=C(c1ccccc1)n1c(-c2cn(-c3ccccc3)nc2-c2ccc(C(F)(F)F)cc2)nc2ccccc21	168 µM	62.5 µg/mL (≈ 123 µM)	> 62.5 µg/mL		25.7 µM	> 10000 µg/mL	62.5 µg/mL (≈ 123 µM)	15.6 µg/mL (≈ 30.7 µM)						
O=C(c1ccccc1)n1c(-c2cn(-c3ccccc3)nc2-c2ccc(F)cc2)nc2ccccc21	180 µM	62.5 µg/mL (≈ 136 µM)	> 62.5 µg/mL		22.1 µM	> 10000 µg/mL	62.5 µg/mL (≈ 136 µM)	7.8 µg/mL (≈ 17 µM)						
Cc1cncc(C(=O)n2c(-c3cn(-c4ccccc4)nc3-c3ccc(F)cc3)nc3ccccc32)c1	119 µM	62.5 µg/mL (≈ 132 µM)	62.5 µg/mL (≈ 132 µM)		22.1 µM	> 10000 µg/mL	62.5 µg/mL (≈ 132 µM)	15.6 µg/mL (≈ 32.9 µM)						
Cc1ccc(-c2nn(-c3ccccc3)cc2-c2nc3ccccc3n2C(=O)c2ccc(Cl)cc2)cc1	216 µM	> 62.5 µg/mL	> 62.5 µg/mL		38.2 µM	> 10000 µg/mL	62.5 µg/mL (≈ 128 µM)	62.5 µg/mL (≈ 128 µM)						
O=C(c1cccnc1)n1c(-c2cn(-c3ccccc3)nc2-c2ccc(F)cc2)nc2ccccc21	216 µM	0.49 µg/mL (≈ 1.07 µM)	0.98 µg/mL (≈ 2.13 µM)	0.49 µg/mL (≈ 1.07 µM)	1.22 µM	> 10000 µg/mL	0.98 µg/mL (≈ 2.13 µM)	0.98 µg/mL (≈ 2.13 µM)			Active			
Cc1ccc(-c2nn(-c3ccccc3)cc2-c2nc3ccccc3n2C(=O)c2cncc(C)c2)cc1	155 µM	62.5 µg/mL (≈ 133 µM)	62.5 µg/mL (≈ 133 µM)		9.56 µM	> 10000 µg/mL	62.5 µg/mL (≈ 133 µM)	7.8 µg/mL (≈ 16.6 µM)						
Cc1ccc(-c2nn(-c3ccccc3)cc2-c2nc3ccccc3n2C(=O)c2ccncc2)cc1	154 µM	62.5 µg/mL (≈ 137 µM)	62.5 µg/mL (≈ 137 µM)		30.3 µM	> 10000 µg/mL	> 62.5 µg/mL	31.2 µg/mL (≈ 68.6 µM)						
O=C(c1ccc(Cl)cc1)n1c(-c2cn(-c3ccccc3)nc2-c2ccc(C(F)(F)F)cc2)nc2ccccc21	181 µM	31.2 µg/mL (≈ 57.6 µM)	> 62.5 µg/mL		39.8 µM	> 10000 µg/mL	62.5 µg/mL (≈ 115 µM)	62.5 µg/mL (≈ 115 µM)						
C[C@]12C[C@@]34C=CC(=O)[C@@](C)(CCC(=O)Nc5c(O)ccc(C(=O)O)c5O)[C@@H]3[C@H](C[C@@H]1C4)O2												0.5 to 1 µg/mL (≈ 1.13 to 2.27 µM)	0.5 to 1 µg/mL (≈ 1.13 to 2.27 µM)	0.5 to 1 µg/mL (≈ 1.13 to 2.27 µM)
Cc1ccc(C(=O)n2c(-c3cn(-c4ccccc4)nc3-c3ccc(F)cc3)nc3ccccc32)cn1	137 µM	62.5 µg/mL (≈ 132 µM)	62.5 µg/mL (≈ 132 µM)	15.6 µg/mL (≈ 33 µM)	4.02 µM	> 10000 µg/mL	1.95 µg/mL (≈ 4.12 µM)	0.98 µg/mL (≈ 2.07 µM)						
Cc1cccc(C(=O)n2c(-c3cn(-c4ccccc4)nc3-c3ccc(F)cc3)nc3ccccc32)c1	148 µM	31.2 µg/mL (≈ 66.1 µM)	62.5 µg/mL (≈ 132 µM)		34.1 µM	> 10000 µg/mL	62.5 µg/mL (≈ 132 µM)	31.2 µg/mL (≈ 66.1 µM)						

From ChEMBL document CHEMBL4346683 (Eur J Med Chem, 2019)
